These results are taken from patent publication US20100260689A1, “REDUCING SHAVING FREQUENCY” (BEIERSDORF AG, priority 2007, published 2010).

This assay in a line: Cutting force during the shaving of human hair after 24 hours of exposure time (universal test apparatus with cutting force adapter). Particulars: products A-D in artificial sweat solution, five hair fibers cut, 90° cutting angle. The protocol: The measurements are thereby carried out on a universal test apparatus with cutting force adapter with four friction bearings and recorded by means of TestXpert software.
Five hair fibers were cut for the measurement.
Due to the influence of the cross section of the hair fiber, a preliminary grouping of the hair fibers to be cut is indispensable, which ensures that the products to be compared were carried out on hair fibers with the same cross section so that relative results are obtained.
Five hair fibers fixed on one side are cut with the aid of a commercially available blade (single-blade razor with replaceable blade) at a constant speed. The blade is thereby clamped in an adapter specially produced for this purpose, which ensures a guidance of the blade with the aid of four friction bearings. The determination of the cutting force is carried out by maximum force detection. At the same time, the friction force of the friction bearings is recorded during each measurement.
Measurement parameters: Measurement speed: 100 mm/min • Cutting angle: 90° • Blade grind: approx. 12°
The tested products A-D (see FIG. 1) comprise an artificial sweat solution composed of […]
In a further comparative test, the cutting force on human hair was measured after 24 hours of exposure time of three preparations (FIG. 2). […]

On to “Aluminum chlorohydrate [aluminum chlorohydrates]”, for which the “cutting force during the shaving of human hair” value by setting is: (FIG. 1) “reduction of the cutting force”; (FIG. 1, listed as ACH) “cutting force reduction”.
